{"source": "patent US20210277102A1", "about": "“COMPOSITIONS AND METHODS FOR TREATING A TUMOR SUPPRESSOR DEFICIENT CANCER” (BETH ISRAEL DEACONESS MEDICAL CENTER, INC., priority 2016, published 2021)", "system": "Pten^pc−/−; Pml^pc−/− prostate tumors", "experiment": "In vivo CXCR2 antagonist treatment of Pten^pc−/−; Pml^pc−/− mice (MRI, flow cytometry)", "parameters": "species or system mouse", "settings": "for tumor growth (tumor volume by MRI): Pml^pc−/− mice, 5 mg/kg intraperitoneal daily for 14 days, vs vehicle, 5 mg/kg", "procedure": "Mice were allocated at random to experimental groups and studies were performed in an unblended manner. For treatment with the CXCR2 antagonist, SB225002 (Cayman Chemical #13336) was dissolved in DMSO (10 mg/ml) and diluted in vehicle (0.9% NaCl, 0.3% Tween 80) for in vivo administration. Mice (4 months of age) were treated daily for 10 days by intraperitoneal injection (5 mg/kg) and prostate tumor tissue (anterior lobes) was subjected to Flow Cytometry and histological analysis. For MRI analysis, mice (4 months of age) were treated daily for 21 days (Pten^pc-/-; Zbtb7a^pc-/-), for 14 days (Pten^pc-/-; Trp53^pc-/-) or for 14 days (Pten^pc-/-; Pml^pc-/-) by intraperitoneal injection (5 mg/kg). For depletion of Gr-1+/CD11b+ cells, Ly6G-depletion antibody (1A8, BioXcell) and control Rat IgG2a antibody (BioXcell) were diluted in phosphate-buffered saline (PBS) for in vivo administration. Mice (4 months of age) were treated every other day for 10 days by intraperitoneal injection (200-300 μg/mouse). InVivoMAb anti-mouse Ly6G/Ly6C (Gr-1) antibody, clone RB6-8C5 (BE0075, BioXcell), and control Rat IgG2b antibody (BE0090, BioXcell) were diluted in PBS and Pten^pc-/-; Trp53^pc-/- mice were treated every other day for 14 days by intraperitoneal injection (200 μg/mouse). For neutralization of CXCL5, anti-Mouse CXCL5 antibody (Leinco Technologies) and control Rat IgG2a antibody (BioXcell) were diluted in PBS and injected every other day for 21 days by intraperitoneal injection (20 μg/mouse). Tumor volume quantification was performed by using VivoQuant and Image J software. All mouse prostate MRI imaging analysis was performed at Small Animal Imaging Core at BIDMC and acquired on an […] Model M2 1T tabletop scanner. For Flow Cytometry, spleen and lymph node single cell suspensions were prepared by mashing the tissue in 2% FBS/PBS. […] All staining mixtures were analyzed on a BD LSR II flow cytometer (Becton Dickinson). Resulting profiles were further processed and analyzed using the FlowJo 8.7 software.", "data": [{"smiles": "O=C(Nc1ccc([N+](=O)[O-])cc1O)Nc1ccccc1Br", "note": "[SB225002]", "values": [{"measurement": "tumor growth (tumor volume by MRI)", "result": "did not show any significant response"}, {"measurement": "tumor growth (tumor volume by MRI)", "setting": "listed as CXCR2i", "result": "did not respond"}, {"measurement": "intra-tumoral Gr-1+/CD11b+ cells (flow cytometry)", "setting": "Pml^pc−/− prostate tumors after treatment", "result": "decrease of Gr-1+/CD11b+ cells"}]}]}
